Values of other authors as cited in patent US20140363484A1, “FIBROUS BIO-DEGRADABLE POLYMERIC WAFERS SYSTEM FOR THE LOCAL DELIVERY OF THERAPEUTIC AGENTS IN COMBINATIONS” (Amrita Vishwa Vidyapeetham, priority 2012, published 2014).

Details: under physiological conditions

half-life: 1.8 h
SMILES: Cn1nnc2c(C(N)=O)ncn2c1=O [temozolomide]
